Reference: ChEMBL document CHEMBL1201862, “PubChem BioAssay data set” (2004)
Active and inactive are the calls of the source.

How the values were obtained:
Estrogen receptor beta [1] = target: T1, Estrogen receptor beta (Homo sapiens, UniProt Q92731); assay: ERβ–SRC-3 coactivator interaction inhibitors, confirmation, orthogonal assay, biochemical, ELISA, streptavidin-HRP readout (AID 1060)
Ephrin type-A receptor 4 = Ephrin type-A receptor 4 (Mus musculus, UniProt Q03137); assay: inhibitors of EphA4 binding to KYL peptide, primary screen, biochemical, colorimetric, mouse EphA4 (AID 689); format: functional
Chain of Ephrin type-A receptor 4 (Q03137 whole entry): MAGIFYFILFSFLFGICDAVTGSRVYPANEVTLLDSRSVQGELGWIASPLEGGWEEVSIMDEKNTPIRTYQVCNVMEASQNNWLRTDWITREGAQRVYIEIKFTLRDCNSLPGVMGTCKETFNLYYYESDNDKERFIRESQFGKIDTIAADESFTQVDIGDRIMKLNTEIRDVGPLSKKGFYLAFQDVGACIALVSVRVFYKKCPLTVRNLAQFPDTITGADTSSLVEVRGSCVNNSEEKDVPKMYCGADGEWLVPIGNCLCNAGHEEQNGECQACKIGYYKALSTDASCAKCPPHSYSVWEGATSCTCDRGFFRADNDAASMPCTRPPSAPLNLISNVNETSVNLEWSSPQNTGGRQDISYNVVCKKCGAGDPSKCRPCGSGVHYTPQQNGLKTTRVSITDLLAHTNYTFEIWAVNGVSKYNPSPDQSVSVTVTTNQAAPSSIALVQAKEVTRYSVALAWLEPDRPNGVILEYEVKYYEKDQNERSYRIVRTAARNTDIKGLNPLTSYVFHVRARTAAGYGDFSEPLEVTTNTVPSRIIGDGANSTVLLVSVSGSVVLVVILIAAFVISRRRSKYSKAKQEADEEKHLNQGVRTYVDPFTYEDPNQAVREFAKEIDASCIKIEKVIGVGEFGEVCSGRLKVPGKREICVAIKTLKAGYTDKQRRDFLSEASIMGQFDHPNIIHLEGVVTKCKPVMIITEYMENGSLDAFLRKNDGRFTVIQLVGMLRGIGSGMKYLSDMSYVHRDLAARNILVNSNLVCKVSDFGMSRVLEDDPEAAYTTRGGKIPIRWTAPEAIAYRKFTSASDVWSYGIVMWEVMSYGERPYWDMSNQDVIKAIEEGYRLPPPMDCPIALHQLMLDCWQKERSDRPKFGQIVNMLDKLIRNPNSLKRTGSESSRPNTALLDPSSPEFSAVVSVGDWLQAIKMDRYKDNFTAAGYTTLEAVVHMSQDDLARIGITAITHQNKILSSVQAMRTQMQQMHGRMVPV

[2] = target: T2, Induced myeloid leukemia cell differentiation protein Mcl-1 (Homo sapiens, UniProt Q07820); format: functional
T2 sequence (Q07820 whole entry): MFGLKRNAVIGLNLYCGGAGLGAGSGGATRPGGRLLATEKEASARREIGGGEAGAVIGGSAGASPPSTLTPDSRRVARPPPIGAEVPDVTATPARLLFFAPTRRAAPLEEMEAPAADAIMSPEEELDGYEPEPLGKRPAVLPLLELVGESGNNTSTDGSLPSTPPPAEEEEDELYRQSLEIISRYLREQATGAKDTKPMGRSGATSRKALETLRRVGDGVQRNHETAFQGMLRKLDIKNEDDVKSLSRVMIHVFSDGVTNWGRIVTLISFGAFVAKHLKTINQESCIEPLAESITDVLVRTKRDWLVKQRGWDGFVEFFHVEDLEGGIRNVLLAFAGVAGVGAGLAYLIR

[3] = target: T3, Tyrosine-protein phosphatase non-receptor type 7 (Homo sapiens, UniProt P35236); assay: inhibitors of human HePTP phosphatase, […], biochemical, absorbance, leukemia target (AID 521); format: functional
T3 sequence (P35236 whole entry): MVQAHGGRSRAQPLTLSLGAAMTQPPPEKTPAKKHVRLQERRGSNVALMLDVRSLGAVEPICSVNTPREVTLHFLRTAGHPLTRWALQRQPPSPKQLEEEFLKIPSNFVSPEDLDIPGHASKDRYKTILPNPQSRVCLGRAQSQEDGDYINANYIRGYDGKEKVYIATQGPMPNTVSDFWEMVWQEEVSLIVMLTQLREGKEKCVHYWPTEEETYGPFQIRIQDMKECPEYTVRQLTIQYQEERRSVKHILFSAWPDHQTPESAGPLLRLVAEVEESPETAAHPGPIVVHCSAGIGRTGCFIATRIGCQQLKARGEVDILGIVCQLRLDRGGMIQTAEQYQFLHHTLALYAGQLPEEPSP

Bcl-2-like protein 10 = target: T4, Bcl-2-like protein 10 (Homo sapiens, UniProt Q9HD36); assay: displacers of TR3 peptide from Bcl-B, primary screen, selectivity assay for Bfl-1 inhibitor project, biochemical, fluorescence polarization, FITC-TR3 peptide (AID 748);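 also: fluorescence polarization from a fluorescein-labelled TR3 peptide binding purified Bcl-B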
T4 sequence (Q9HD36 whole entry): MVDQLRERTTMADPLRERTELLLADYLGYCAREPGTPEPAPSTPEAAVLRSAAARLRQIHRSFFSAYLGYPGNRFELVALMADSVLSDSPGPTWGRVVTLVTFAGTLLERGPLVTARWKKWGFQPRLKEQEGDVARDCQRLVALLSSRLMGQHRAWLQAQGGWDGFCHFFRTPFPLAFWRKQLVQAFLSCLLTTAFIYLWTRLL

[4] = target: T2, Induced myeloid leukemia cell differentiation protein Mcl-1; assay: MCL1-BIM BH3 interaction inhibitors, dose response, biochemical, fluorescence polarization, BIM-BH3 peptide, 1536-well (AID 2217)
Estrogen receptor beta [5] = target: T1, Estrogen receptor beta
Bcl-2-like protein 1 = Bcl-2-like protein 1 (Homo sapiens, UniProt Q07817); assay: BCL-XL inhibitors, dose response, selectivity assay for MCL1 inhibitor project, biochemical, fluorescence polarization, 1536-well (AID 2218)
Chain of Bcl-2-like protein 1 (Q07817 whole entry): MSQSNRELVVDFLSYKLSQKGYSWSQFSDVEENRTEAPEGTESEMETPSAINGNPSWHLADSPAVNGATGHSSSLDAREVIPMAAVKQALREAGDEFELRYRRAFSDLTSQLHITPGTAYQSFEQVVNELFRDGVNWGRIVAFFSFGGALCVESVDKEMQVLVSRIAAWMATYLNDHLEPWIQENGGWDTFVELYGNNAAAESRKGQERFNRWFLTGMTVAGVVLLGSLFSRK

[6] = target: T5, Dual specificity protein phosphatase 6 (Rattus norvegicus, UniProt Q64346); assay: MKP-3 phosphatase inhibitors, primary screen, biochemical, rat enzyme, in vitro (AID 425)
T5 sequence (Q64346 whole entry): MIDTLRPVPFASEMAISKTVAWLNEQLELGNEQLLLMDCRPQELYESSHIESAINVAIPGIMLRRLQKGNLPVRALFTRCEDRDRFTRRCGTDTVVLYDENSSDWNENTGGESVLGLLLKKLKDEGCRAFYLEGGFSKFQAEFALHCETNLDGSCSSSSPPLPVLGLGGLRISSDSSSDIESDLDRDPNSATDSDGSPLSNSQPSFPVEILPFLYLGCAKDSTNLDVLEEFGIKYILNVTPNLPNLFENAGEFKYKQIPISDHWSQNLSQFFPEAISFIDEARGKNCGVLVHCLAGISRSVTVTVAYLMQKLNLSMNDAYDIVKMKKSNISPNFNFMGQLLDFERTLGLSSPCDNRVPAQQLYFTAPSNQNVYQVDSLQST

[7] = target: Sphingosine 1-phosphate receptor 2 (Homo sapiens, UniProt O95136); assay: Dose Response Cell Based Assay for Antagonists of the S1P2 Receptor. [Related pubchem assays: 856, 736 ]; format: functional
Chain of Sphingosine 1-phosphate receptor 2 (O95136 whole entry): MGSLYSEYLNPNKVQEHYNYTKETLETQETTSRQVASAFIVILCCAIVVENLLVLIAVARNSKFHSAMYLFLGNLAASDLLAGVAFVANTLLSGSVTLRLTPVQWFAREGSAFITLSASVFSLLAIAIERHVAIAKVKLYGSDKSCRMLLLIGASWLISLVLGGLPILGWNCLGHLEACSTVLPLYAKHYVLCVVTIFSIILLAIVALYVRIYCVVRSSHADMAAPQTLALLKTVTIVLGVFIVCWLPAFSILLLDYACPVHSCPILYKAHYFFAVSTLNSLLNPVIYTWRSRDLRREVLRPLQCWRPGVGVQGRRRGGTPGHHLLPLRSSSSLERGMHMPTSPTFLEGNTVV

[8] = target: Solute carrier family 12 member 2/member 5 (Homo sapiens, UniProt P55011+Q9H2X9); assay: KCC2 and NKCC1 inhibition by rubidium flux, cell-based, NKCC1 counter-screen (AID 1734); format: functional, HEK293
[9] = Luminescent dose response cell-based high throughput screening assay for inhibitors of the Janus kinase 2 mutant JAK2V617F. [Related pubchem assays: 1446 (Primary screen.), 1521 (Confirmation assay.), 1486 (Counter screen.)]; format: functional
[10] = target: E3 ubiquitin-protein ligase Mdm2 (Homo sapiens, UniProt Q00987); assay: enhancers of MDM2-luciferase reporter signal, concentration-effect titration, project on inhibitors of MDM2 ubiquitin ligase, cellular assay, luminescent readout, 384-well plate format (AID 1394); format: functional;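 also: MDM2 E3 inhibitors raise luminescence so EC50 is for signal enhancement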
Chain of E3 ubiquitin-protein ligase Mdm2 (Q00987 whole entry): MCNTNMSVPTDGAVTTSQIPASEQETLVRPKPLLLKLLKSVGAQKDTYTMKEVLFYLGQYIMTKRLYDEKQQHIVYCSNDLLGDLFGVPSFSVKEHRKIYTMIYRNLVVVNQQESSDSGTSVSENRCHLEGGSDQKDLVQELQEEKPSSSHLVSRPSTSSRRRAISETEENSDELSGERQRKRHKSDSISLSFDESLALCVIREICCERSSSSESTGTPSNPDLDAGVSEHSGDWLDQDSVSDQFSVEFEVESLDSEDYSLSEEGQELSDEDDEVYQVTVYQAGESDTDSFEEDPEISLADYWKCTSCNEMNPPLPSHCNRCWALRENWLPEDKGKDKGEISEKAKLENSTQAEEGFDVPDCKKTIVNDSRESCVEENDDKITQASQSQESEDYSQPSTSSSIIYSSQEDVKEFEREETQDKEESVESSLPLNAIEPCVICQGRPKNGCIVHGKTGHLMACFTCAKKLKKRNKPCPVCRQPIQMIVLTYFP

[11] = target: Bifunctional protein GlmU (Mycobacterium tuberculosis, UniProt P9WMN3); assay: Inhibitors of Mycobacterial Glucosamine-1-phosphate acetyl transferase (GlmU). Secondary screen.; parameters: species or system Mycobacterium tuberculosis H37Rv
Chain of Bifunctional protein GlmU (P9WMN3 whole entry): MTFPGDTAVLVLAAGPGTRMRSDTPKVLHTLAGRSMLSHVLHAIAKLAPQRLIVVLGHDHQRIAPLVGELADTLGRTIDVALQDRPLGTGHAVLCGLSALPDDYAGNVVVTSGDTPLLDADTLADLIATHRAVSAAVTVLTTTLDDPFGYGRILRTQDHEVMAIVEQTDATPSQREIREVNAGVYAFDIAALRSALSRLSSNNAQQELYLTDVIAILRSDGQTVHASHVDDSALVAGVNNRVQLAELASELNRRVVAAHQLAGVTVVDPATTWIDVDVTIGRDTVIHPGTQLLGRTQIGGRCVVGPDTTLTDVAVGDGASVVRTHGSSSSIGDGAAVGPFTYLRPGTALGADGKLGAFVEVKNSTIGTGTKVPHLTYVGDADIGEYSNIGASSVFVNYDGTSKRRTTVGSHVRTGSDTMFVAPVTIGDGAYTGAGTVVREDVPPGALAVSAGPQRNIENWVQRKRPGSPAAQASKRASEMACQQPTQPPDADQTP

[12] = target: Heat shock protein HSP 90-alpha (Homo sapiens, UniProt P07900); format: functional, organism-based
[13] = Dose-response inhibition of insulin secretion in a rat insulinoma line at 5 mM glucose (AID 1117331); format: functional, cell-based; details: INS-1E
[14] = Glucagon-like peptide 1 release potency, NCI-H716 cell line, dose-response, half-maximal inhibitory concentration (AID 1117344); format: functional, cell-based

T1 sequence (Q92731 whole entry): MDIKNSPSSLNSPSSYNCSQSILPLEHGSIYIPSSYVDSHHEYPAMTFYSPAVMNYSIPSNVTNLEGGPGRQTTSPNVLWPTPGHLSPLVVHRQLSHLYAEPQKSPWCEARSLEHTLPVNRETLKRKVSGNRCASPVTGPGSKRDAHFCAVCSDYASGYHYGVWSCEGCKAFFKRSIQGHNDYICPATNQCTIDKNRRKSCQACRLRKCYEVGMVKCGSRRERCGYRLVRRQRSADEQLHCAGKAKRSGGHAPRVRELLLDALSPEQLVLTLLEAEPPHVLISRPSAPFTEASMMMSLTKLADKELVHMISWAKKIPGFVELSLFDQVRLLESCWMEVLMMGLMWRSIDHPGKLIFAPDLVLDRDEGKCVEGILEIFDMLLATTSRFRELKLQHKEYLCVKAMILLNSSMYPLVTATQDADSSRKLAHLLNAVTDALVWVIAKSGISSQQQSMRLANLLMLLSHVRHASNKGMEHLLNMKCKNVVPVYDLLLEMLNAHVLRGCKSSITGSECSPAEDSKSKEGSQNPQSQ

In the case of `Cc1nc(C)c(C(=O)Nc2nc3c(C)cccc3s2)o1`, the IC50 (Estrogen receptor beta [1]) is reported as 0.588 µM (not active), the IC50 (Ephrin type-A receptor 4) is reported as 11.3 µM (active) and the IC50 [2] is reported as 3.36 µM (active).
In the case of `COC(=O)c1ccccc1NC(=O)c1noc2c1CCC2`, the IC50 [3] is reported as 2.33 µM (active), the IC50 (Bcl-2-like protein 10) is reported as 16.5 µM (active) and the IC50 [4] is reported as 13.5 µM (not active). The IC50 (Estrogen receptor beta [5]) was 2.18 µM (active), the IC50 (Estrogen receptor beta [1]) was 9.45 µM (not active) and the IC50 (Bcl-2-like protein 1) was > 109 µM (not active). For the same compound, the IC50 [6] was > 10 µM (not active).
For `Cc1nc(-c2cccs2)sc1C(=O)Nc1ccc(F)cc1`, the IC50 [7] was > 30 µM (not active).
For `Cc1ccc(-c2ccc(S(=O)(=O)NCC3CCCO3)cc2)cc1` (stereo not drawn), the IC50 [8] was 7.7 µM (active).
In the case of `CN(C)C(=S)SSC(=S)N(C)C` [THIRAM], the IC50 [9] is reported as 0.223 µM (active), the EC50 [10] is reported as 0.18 µM (active) and the IC50 [11] is reported as 89.3 µM (active). The AC50 [12] was 7.74 µM (active), the IC50 [13] was > 33.3 µM (inactive) and the IC50 [14] was > 40 µM (inactive).
